Results on 24 compounds are retold here after US8119339B2, “Heteroduplex tracking assay” (priority 2000, dated 2012).

Where “and” joins values, the source holds several entries; their conditions need not be identical. Identical values can stand only once.

The test system of test [1] is GHOST.CCR5 and GHOST.CXCR4 indicator cells (R5-tat, X4-tat). Description: Rapid Cell Fusion Assay for coreceptor utilization (CAT-ELISA). It counts as cell-based. As to conditions: cloned patient env gene expressed on HL3T1 cells, fusion for 48 hours. The source says: Viral coreceptor usage was separately evaluated through the use of a Rapid Cell Fusion Assay. This assay enables determination of coreceptor usage from cloned HIV env gene sequences obtained directly from patient samples (e.g. blood, mucosal tissue). This method allows for greater efficiency in determination of viral coreceptor usage, by circumventing the need for cultivation of primary isolates. The Rapid Cell Fusion Assay can advantageously produce a result within one week after obtaining a patient sample. In addition, the Rapid Cell Fusion Assay allows study of patient-derived virus obtained from sites other than the peripheral blood, particularly those sites from which cultured virus cannot be obtained. For example, while circulating macrophages and CD4^+ T cells are the dominant reservoir of HIV-1, viral populations distinct from those in the peripheral blood exist in many reservoirs, including the genital tract.
The HL3T1 cell line was derived by stable transfection of parental HeLa cells with a chloramphenicol acetyltransferse (CAT) reporter construct containing a CAT gene is linked to an HIV-1 LTR promoter. The HL3T1 cells produce CAT protein only upon introduction of an active HIV-1 Tat protein. HL3T1 cells were transfected with a cloned env gene derived from a patient of interest. The cloned env gene product is expressed on the surface of the HL3T1 cells.
Indicator cell lines GHOST.CCR5 and GHOST.CXCR4 (respectively hereinafter “R5-tat” and “X4-tat”) cells were transfected with pSV2tat72, a construct expressing high levels of HIV-1 Tat under the control of the SV40 early promoter.
HL3T1 cells containing a cloned patient env gene were fused to R5-tat and X4-tat cells. Cell surface envelope protein variants will selectively interact with either CCR5 or CXCR4. Fusion only occurs when an HL3T1 envelope protein interacts with an indicator cell expressing a compatible coreceptor. Therefore, HL3T1 cells will fuse with either R5-tat and X4-tat, depending on the patient's env gene specificity. To initiate fusion, transfected HL3T1 and R5-tat or X4-tat cells were mixed in 6-well plates at 37° C. and allowed to fuse for 48 hours. To quantitate fusion, the cells were lysed with 0.5% NP-40. Fusion of HL3T1 cells to R5-tat or X4-tat activated CAT gene expression. Aliquots of the cell lysates were monitored for CAT production using a commercially available kit (CAT-ELISA, Boehringer Mannheim).
Twenty-five clones from each sample were analyzed to ensure that the fusion assay reflected the heterogeneous nature of HIV-1 populations.
For orientation: An ELISA detects its analyte on a solid surface through an enzyme-linked reagent.

A further test concerns CD4+ cells. Kind of test: CD4+ cell count in women before and after antiretroviral therapy. The note with it: Status before combination therapy, single patient, on the listed anti-HIV therapy. It counts as in vivo, human.
Test [2] concerns HIV-1 strains using CCR5 versus CXCR4. Description: QXR, proportion of patient HIV-1 using CCR5. It counts as in vivo, human. The note with it: Status before combination therapy, single patient, on the listed anti-HIV therapy. The procedure:
To quantitate HIV-1 coreceptor use, inventors constructed a variable, λ, as the proportion of strains using CCR5. This variable has since been renamed QXR. […] QXR values were assessed by utilizing qualitative assay data derived from primary isolates, biologic clones, and sequences of the V3 portion of the env gene. […] Thus, for the vast majority of virions, each virion uses either CCR5 or CXCR4. This relationship can be stated as a mixture
D=QXR(CCR5)+(1−QXR)(CXCR4); 0≦QXR≦1, where D is the distribution of viral phenotypes. By design, it is a binomial population.
QXR values were constructed by relating data derived from the same patient sample by using three different analyses: biologic cloning, V3 sequencing of patient-derived molecular clones, and qualitative assays of primary isolates. To construct QXR values, inventors first calculated the proportion of biologic and, if available, molecular clones using CCR5 at each time point, then linked the proportion to the qualitative coreceptor use score (− to 3+) of primary isolates obtained simultaneously. Data that were not available were interpolated. […]
The large number of biologic and molecular clones permitted derivation of a system to quantitate the proportion of virus in a clinical specimen that uses each coreceptor. […] By applying this method, it was determined the proportion of virus using each coreceptor for each patient over time. […]

The next test deals with HIV-1. As to conditions: Status before combination therapy, single patient, on the listed anti-HIV therapy.
Test [3] has as its system V3 region of the env gene. Description: Coreceptor use predicted from V3 loop sequences of plasma HIV-1 RNA molecular clones. The note with it: number of molecular clones of virion-derived plasma HIV-1 RNA. From the text: HIV-1 virions were isolated from plasma samples as described (Fang et al. (1996) J. AIDS Hum. Retro. 12:352-7). Reverse transcriptase polymerase chain reaction amplification produced a 920-bp amplicon spanning the V3 region of the env gene. Reaction conditions were controlled rigorously to minimize recombination and other artifacts (Fang et al. (1996)). Amplified products were cloned into a TOPO™ TA vector (Invitrogen, Carlsbad, Calif.), verified by restriction digestion, and sequenced. Alignment of the sequences was initially done using the PILEUP program in the GCG Suite (Genetics Computer Group, Madison, Wis.), then checked manually. Envelope sequences were used to predict coreceptor use on the basis of the overall charge of the V3 loop and the presence of basic or acidic residues at positions […] (Bhattacharyya et al. (1996); and Hung et al. (1999)).
These sequences predicted a pattern of coreceptor use that essentially paralleled the one obtained by using viral culture (Table 2B, Coreceptor use determined by cocultivation of PBMCs vs. sequence analysis of plasma HIV-1 RNA). […] At each time point, coreceptor use was assayed by co-cultivating PBMCs and determining the V3 loop sequence of virion-derived HIV-1 RNA.

Protocol for CD4+ cells: Coreceptor use was examined in twenty-two women who participated in two prospective studies of HIV-1 infection. Nineteen were enrolled in the Bronx-Manhattan site of Women's Interagency HIV Study (WIHS), a National Institutes of Health (NIH) multicenter study of the natural history of HIV-1 infection in women. Three took part in a study of HIV-1 pathogenesis performed at the Wadsworth Center of the New York State Department of Health in Albany, N.Y. Both studies included individuals with a broad spectrum of HIV-1 disease. The institutional review boards at each clinical site and the New York State Department of Health approved the investigation. Each woman provided informed consent at enrollment.
To examine the effect of combination antiretroviral therapy on HIV-1 coreceptor use, women infected with CXCR4 strains were sought.
At that time, eight women were receiving antiretroviral therapy, primarily zidovudine monotherapy. While under study, however, 12 initiated new combination regimens; 9 received HAART (Group I) and 3 received two or more nucleoside analogues (Group II). […] In Table 1, “Before therapy” refers to data obtained at the visit immediately preceding initiation of new two or three drug antiretroviral therapy in Groups I & II. For Group III, data from the first time point are shown (a). “Follow-up” refers to data obtained at the first time point following the initiation of the anti-HIV therapy listed for Groups I & II.

Consider “CTRPSNNRRKSIHKGDQDKHSMEHDDVIGDIRKARC [AF6P-7]”, for which, in test [1], the CORECEPTOR result is recorded as “negative”.

As for “CIRPNNNTRTSIRIGPGQAFYATGNIVGDIRQAYC [AF2P12-11]”, in test [1], the CORECEPTOR entry is “CCR5”.

In the case of “CTRPNNNTRKSVHIGPGQAFYATGDIIGNMRKAHC [AF3P-12]”, the CORECEPTOR result in test [1] is listed as “CCR5”. As to “CIRPNNNTRTSIRIGPGQAFYATGNIIGGIRQAYC [AF2P12-2]”, the CORECEPTOR result in test [1] is “CCR5”. The same measure, in the same setting: under “CTRPNNNTRKSVHIGPGQAFYATGDIIGNIRQAHC [AF3P-6]” stands “CCR5”. Take “CTRPNNNTRKSVHIGPGQAFYATGDIIGNIRKAHC [AF3P-4]”: the CORECEPTOR entry in test [1] is listed as “CCR5”. The same measure, in the same setting: under “........RKSVHIGPGQAFYATGDIIGNIRKAHC [AF3P-2]” stands “negative”. On the same count and under the same terms, under “CTRPNNNTRKSVHIGPGQAFYATGDIIGDIRQAYC [AF5P-5]” stands “CCR5”; under “CTRPINNRRKSIHIGPGQAFYGT.DDIIGDIRQAHC [AF6P-10]”, “CCR5”; under “CIRPNNNTRTSIRIGPGQAFYATGNIIGDIRQAYC [AF2P12-12]”, “CCR5”. On the same count and under the same terms, the entry for “CIRPNNNTRTSIRIGPRQAFYATGNIIGDIRQAYC [AF2P12-10]” is “CXCR4”; for “CTRPSNNRRKSIHMGPGQAFYGT.DDIIGGIRKARC [AF6P-11]” it is “CCR5”; for “CTRPNNNTRKSVHIGPGQAFYATGDILGNIRQAHC [AF3P-11]” it is “CCR5”. On to “CTRPNDNIRKRVHIGPGQAFYATGDVIGDIRRAHC [AF10P97-4]”, for which, in test [1], the CORECEPTOR result is listed as “CXCR4”. Consider “CTRPINNRRKSIHMGPGQAFYGT.DDIIGDIRKARC [AF6P-1]”, for which, in test [1], the CORECEPTOR entry is on record as “CCR5”.

For “CIRPNNNTRQSVHIGPGQALYTTEIIGDIRKAHC [AF7P-9]”, in test [1], the CORECEPTOR result is “CCR5”. Turning to “CTRPNNNTITSIRIGPGQAFYATGSIIGNIRQAHC [AF9P2-3]”, the CORECEPTOR result in test [1] is given as “CCR5”.

As for `Cc1cn([C@H]2C=C[C@@H](CO)O2)c(=O)[nH]c1=O` [d4T, stavudine], the “CD4+ count, cells per mm3” value in the test on CD4+ cells was determined as 9 cells per mm3. Besides, in test [2], the “QXR, proportion of HIV-1 Using R5” value came to 0.36. Besides, the “HIV-1 RNA, log copies per ml” value with HIV-1 stood at 5.28 log copies per ml. Regarding “CTRPNNNTRKSVHIGLGQAFYATGDIIGNIRKAHC [AF3P-9]”, the CORECEPTOR entry in test [1] is given as “CCR5”.

For `Cc1cn([C@H]2C[C@H](N=[N+]=[N-])[C@@H](CO)O2)c(=O)[nH]c1=O` [AZT, zidovudine], in the test with CD4+ cells, the “CD4+ count, cells per mm3” value was 188 cells per mm3 and 42 cells per mm3 and 259 cells per mm3 and 307 cells per mm3 and 43 cells per mm3. In test [2], the “QXR, proportion of HIV-1 Using R5” value was 0.36 (2×) and 0.90 and 0.00 (2×). In test [3], the “Distribution of Co-Receptor Use Predicted by V3 Loop Sequences, CCR5” value was 9 and the “Distribution of Co-Receptor Use Predicted by V3 Loop Sequences, CXCR4” value is 4. Besides, the “HIV-1 RNA, log copies per ml” value in the test on HIV-1 was 5.30 log copies per ml and 4.94 log copies per ml and 5.58 log copies per ml and 5.04 log copies per ml and 5.23 log copies per ml. In the case of “CTRPNNNTKKSVHIGPGQAFYATGDIIGDIRQAYC [AF5P-6]”, the CORECEPTOR entry in test [1] is reported as “CCR5”.

Take “CTRPNDNIRKSVHIGPGQAFYATGDIIGDIRRAHC [AF10P97-2]”: the CORECEPTOR result in test [1] is “CCR5”. For “CTRPNNNTITSIRIGPGQAFYATGSIIGNTRQAHC [AF9P2-4]”, the CORECEPTOR entry in test [1] is reported as “CCR5”.

On to “CTRPSNNRRKSIHMGPGQAFYGT.DDIIGDIRKARC [AF6P-12]”, for which the CORECEPTOR result in test [1] is “CCR5”.
